Source: patent US20250059139A1, “COMPOUNDS FOR TREATMENT OF CANCER” (THE JOHNS HOPKINS UNIVERSITY, priority 2021, published 2025)
Like-named read-outs stand apart in the source and are kept apart here.

Key:
[1] = test system: liver Cyp1a1; test: Mouse liver Cyp1a1 induction after oral dosing (Q-PCR); type: in vivo
Excerpt: Real-time quantitative PCR (Q-PCR) analysis. […] ID NO: 2) and […] ID NO: 3). […] ID NO: 4) and […] ID NO: 5).

[2] = test system: CWR22-RH human prostate cancer PDXs; test: In vivo growth of CWR22-RH xenografts in castrate NSG male mice; conditions: for CWR22-RH Tumor Growth (% inhibition +/− SD): castrate mice treated orally over a 3 week period, n = 5/group
Excerpt: Prostate Cancer Models. The source, history, and characteristics of the human prostate cancer cell lines and PDXs used, as well as cell culture conditions for their in vitro maintenance and the in vivo protocol for xenograft growth in triple immune-deficient NSG (i.e. NOD.Cg-PrkdcScidIl2rgtmlWji/Szj), adult (>8 week old) male mice obtained from the Sidney Kimmel Comprehensive Cancer Center (SKCCC) Animal Core Facility are described previously (Isaacs 2013; Brennen et al. JCI Insight. 2021, 6(8):e146827; Zhu et al. Oncogene 2020, 39(45): 6935-6949). Similar information concerning the TRAMP-C2 and B6CaP mouse prostate cancers originating in a C57BL/6J male mice are described previously (Foster et al. Cancer Res. 1997, 57: 3325-3330; Simons et al. Oncotarget. 2019, 10(64):6845-6854). In vitro growth curves were determined as described (Isaacs 2013). In vivo growth response to oral daily TasQ (10 mg/kg/d) of TRAMP-C2 mouse prostate cancers was evaluated in C57BL/6J syngeneic wild type vs. NOX-2 vs. iNOS null male mice obtained from Jackson Laboratory (Bar Harbor, ME). Growth response to oral daily TasQ (10 mg/kg/d) of TRAMP-C2 and B6CaP mouse prostate cancers was also evaluated in S100A9 null C57BL′6J male mice obtained from Dmitry Gabrilovich (Wistar Institute). All lines were mycoplasma negative using the MycoSensor PCR Assay kit (Agilent Technologies) and genetically authenticated within the last 6 months using short tandem repeat profiling conducted by the Johns Hopkins Genetic Resource Core Facility. In vitro growth curves were determined as described (Isaacs 2013). Growth response to daily oral TasQ vs. ESATA-20 (both at 10 mg/kg/d) of Myc-CaP-CR mouse prostate cancer was evaluated in syngeneic FVB/NJ castrate male mice from Jackson Laboratory. Animal studies were conducted according to animal protocols approved by Johns Hopkins Animal Care and Use Committee. Tumor volume measurements were as described previously (id.). In vivo experiments were repeated multiple independent times for each model used with 3-5 mice per treatment grouping.
(§1) Oral Drug treatment. TasQ at the indicated dose was initially dissolved with equal molar 1 N sodium hydroxide. This solution was diluted with sterile water and the mixture stirred for 1 hr. The pH was then adjusted with 1 N HCl to 8.9 and 200 μL given daily via oral gavage.
Due to these combined effects, maximal growth inhibition of CWR22-RH, a castration-resistant prostate cancer patient-derived xenograft (PDX), is obtained as maintenance therapy with oral daily dosing of ≥5 mg/kg/d (FIG. 1). […] Previous studies documented that in vitro treatment of human prostate cancer cells (LNCaP) with 1-10 μM TasQ rapidly (i.e., ≤1 day) induces the transcription of a series of AHR target genes (e.g., Cyp1a1, Cyp1b1, AHRR, TPARP, GDF15) (Olsson 2010). […]

[3] = test system: HIF-1α protein in LNCaP cells; test: Nuclear HIF-1α protein level in LNCaP cells (immunoblot); type: cell-based, human; conditions: LNCaP cells in vitro, read-out: IC50 for decreasing nuclear HIF-1α protein
Method: Western Blot Analysis. Analysis and quantification of protein expression via immunoblot was performed as previously described (Brennen 2021). All assays were performed with total cell lysates from an equal number (i.e., 100,000) of cells loaded per lane for accurate comparisons across cell lines and conditions.
[…] is an HDAC4 client (see, e.g., Isaacs 2013) binding between AA 603-788 in its inhibitory domain to HDAC4 (Seo et al. FEBS Lett 583, 55-604 (2009)). As a client, the HDAC4/NCoR1/HDAC3 complex deacetylates the N-terminal lysines, which stabilizes and thus activates HIF-1α as a transcription factor (see, e.g., Isaacs 2013). In LNCaP cells under normoxic conditions, HIF-1α protein is low, cytoplasmic, and mostly unphosphorylated; while under hypoxic conditions, it is increased, nuclear, and phosphorylated (i.e., slower migrating band on western blot) (see, e.g., Isaacs 2013) (FIG. 30). HDAC4 KD in LNCaP prostate cancer cells prevents deacetylation-dependent stabilization, resulting in a reduction of nuclear HIF-1α protein (FIG. 31). […] The causal importance of decreased HIF-1α protein for in vivo growth was evaluated by knocking down HIF-1α protein expression in LNCaP cells (FIG. 31), and assessing xenograft growth.

[4] = Pharmacokinetic (PK) analysis after oral dosing in mice; type: in vivo, mouse; conditions: for half-life: oral, 10 mg/kg
Method: as §1
Pharmacokinetic (PK) Analysis. Plasma or serum samples; 50 uL of plasma or serum was transferred into a 1.7 mL microfuge tube. Three volumes of acetonitrile containing 0.1% TFA was added and the sample was vortexed for 1 to 3 minute, then centrifuged at 13,000 RPM in a microcentrifuge. 120 uL of the resulting supernatant was loaded into a sample loop with a cut off volume of 100 uL and injected into the HPLC onto a C18 reverse phase column. The HPLC system was a WATERS 600 series quaternary system with a 2487 dual wavelength detector set at 215 nm and 332 nm. Mobile phase A was 5% Acetonitrile/water, 0.1% TFA Mobile phase B was 95% Acetonitrile/water, 0.1% TFA 1.5 mL/min 20% B to 98% B in 10 minutes, hold for 5 minutes return to initial condition for 4 minutes/Retention time for tasquinimod was 11 min, RT for ESATA20 was 13.3 min with no observable interference from endogenous mouse peaks.

Compound | induction of liver Cyp1a1 ([1]; given orally at 30 mg/kg/d) | anti-cancer efficacy compared with TasQ ([2]; 10 mg/kg/d) | CWR22-RH Tumor Growth (% inhibition +/− SD) ([2]; 10 mg/kg/d) | fold more potent than TasQ in inhibiting CWR22-RH xenograft growth ([2]; on a molar basis) | IC50 ([3]; Homo sapiens) | fold lower bioavailability than TasQ ([4]; 10 mg/kg oral) | drug bound to serum proteins ([4]; mouse, in vivo) | half-life ([4]; mouse, serum, read-out: alpha half-life for tissue distribution (converted)) | half-life ([4]; mouse, serum, read-out: beta half-life for serum elimination) | Cmax ([4]; mouse, serum, 10 mg/kg oral dose) | induction of liver Cyp1a1 ([1]; daily oral 10 mg/kg, alone and in combination with B(a)P) | plasma concentration required to maximally inhibit in vivo prostate cancer xenograft growth ([2]; combined xenograft and PK results) | oral daily dose giving maximal growth inhibition ([2]; maintenance therapy, CWR22-RH PDX) | IC50 [3] | Cmax ([4]; 10 mg/kg oral dose, read-out: serum Cmax) | serum drug level maintained ([4]; 4-week old FVB male mice, oral 10 mg/kg/d over 14 days) | Cmax ([4]; oral 5 mg/kg/d, 1 hr post-dosing, read-out: serum Cmax)
COc1cccc2c1c(O)c(C(=O)N(c1ccc(C(F)(F)F)cc1)C1CCCCC1)c(=O)n2C [ESATA-20] | lack of induction | same maximal anti-cancer efficacy as TasQ | 80 +/− 15% | at least 5 fold | 1000 nM | 5.5 fold | > 98% | 3 h | 10 to 12 h | 7.91 µM |  |  |  |  |  |  | 
COc1cccc2c1c(O)c(C(=O)N(C)c1ccc(C(F)(F)F)cc1)c(=O)n2C [TasQ, Tasquinimod] |  |  | 87 +/− 11% |  |  |  |  |  |  |  | > 50 fold | > 2 µM | ≥ 5 mg/kg/day | 2500 nM | 44 µM | > 1 µM | 20 µM
